Measured values reported in patent US12414960B2, “Analogues of oleuropein and oleacein and uses thereof” (Attica Sciences Ltd., priority 2020, dated 2025).

Columns and labels:
[1] = test system: HeLa cervical cancer cells; assay: XTT cell growth assay, HeLa; format: cell-based, human; conditions: Homo sapiens, HeLa, 24 h, NS = not statistically significant, read-out: Effectiveness to suppress HeLa cell growth (cell growth inhibition)
From the text: (§1) The XTT assay is used to measure cellular metabolic activity as an indicator of cell viability, proliferation and cytotoxicity. This non-radioactive, colorimetric assay system was first described by Scudiero, et al. in 1988 (Paull, Kenneth D. et al., J Heterocycl Chem, 1988, 25: 911-914; Scudiero, Dominic A. et al., Cancer Res, 1988, 48: 4827-4833) and improved in subsequent years by several other investigators (Weislow, Owen S. et al., J Natl Cancer Inst, 1989, 81(8): 577-586; Roehm, N. W. et al., J Immunol Methods, 1991, 142: 257-265).
(§2) The XTT assay is based on the reduction of a yellow tetrazolium salt (sodium 3′-[1-(phenylaminocarbonyl)-3,4-tetrazolium]-bis (4-methoxy6-nitro) benzene sulfonic acid hydrate or XTT) to an orange formazan dye by metabolically active cells (FIG. 8). The formazan dye formed is soluble in aqueous solutions and is directly quantified using a scanning multiwell spectrophotometer (ELISA reader). An increase in number of living cells results in an increase in the overall activity of mitochondrial dehydrogenases in the sample. This increase directly correlates to the amount of orange formazan formed, as monitored by the absorbance. Reduced number of living cells leads to reduced metabolism of quaternary salt and therefore reduced absorption.
(§3) Cell viability was assessed using the XTT assay kit (Roche, Mannheim, Germany) as described previously (Kouka, Paraskevi et al., Oxid Med Cell Longev. 2019, Article ID 1870965). Briefly, cancer cells per well were cultured in a 96-well plate in Dulbecco's modified Eagle's medium (DMEM). Following a 24 h incubation, 5, 10 and 50 μM of the tested GS compound was diluted in a serum-free DMEM and administered for 24 h. Subsequently, 50 μL of the XTT reagent (50:1) was added to each well. After 4 h of incubation, the absorbance was monitored at 450 nm and also at 630 nm as a reference wavelength in a BioTek ELx800 microplate reader (BioTek Instruments Inc., Winooski, VT, USA). As a negative control, samples containing serum-free DMEM only were used.
HeLa is a human immortal cell line used in scientific research. It is the oldest and most commonly used human cell line. The line was derived from cervical cancer cells taken on Feb. 8, 1951 from Henrietta Lacks, a patient who died of cancer on Oct. 4, 1951.
(§4) The effects of exemplary compounds on cancer cell lines and one non-tumorigenic cell line (control) were investigated using a high throughput screening assay. More specifically, the effects of the GS compounds on cell growth was evaluated by the XTT assay for cell lines HepG2, HeLa, MCF7 ER+, MDA-MB-231, and MKN-45, and by the Cell Glo luminescence assay for cell lines MIA PaCa-2, HCT-116, MCF-10A, and PANC-1.

[2] = test system: MDA-MB-231 triple negative breast cancer cells; assay: XTT cell growth assay, MDA-MB-231; format: cell-based, human; conditions: NS = not statistically significant; for inhibition at 50 µM: Homo sapiens, MDA-MB-231, 24 h, read-out: Effectiveness to suppress MDA-MB-231 cell growth (cell growth inhibition); for Effectiveness to suppress MDA-MB-231 cell growth (cell growth inhibition): 50 uM, 24 h
From the text: as §1, §2, §3
MDA-MB-231 is a human epithelial breast cancer cell line that was established from a pleural effusion of a person with a metastatic mammary adenocarcinomal and is one of the most commonly used breast cancer cell lines in medical research laboratories.
as §4

[3] = test system: MIA PaCa-2 pancreatic cancer cells; assay: Cell Glo luminescence cell growth assay, MIA PaCa-2; format: cell-based, human; conditions: Homo sapiens, MIA PaCa-2, 24 h, NS = not statistically significant, read-out: Effectiveness to suppress MIA PaCa-2 cell growth (cell growth inhibition)
From the text: (§5) The CellTiter-Glo® Luminescent Cell Viability Assay (Promega Corporation; Madison, WI) is a homogeneous method of determining the number of viable cells in culture based on quantitation of the ATP present, an indicator of metabolically active cells. The homogeneous assay procedure involves adding the single reagent (CellTiter-Glo® Reagent) directly to cells cultured in serum-supplemented medium. The homogeneous “add-mix-measure” format results in cell lysis and generation of a luminescent signal proportional to the amount of ATP present. The amount of ATP is directly proportional to the number of cells present in culture.
(§6) Cancer cells (3,000 cells/well) were harvested in a 96-well plate. Then, the cancer cells were treated with GS compounds and incubated for 24 hours. The MT Cell Viability Substrate, NanoLuc® Enzyme and cell culture medium was equilibrated to 37° C. The 2× RealTime-Glo™ reagent was prepared by diluting the MT Cell Viability Substrate and NanoLuc® Enzyme in 37° C. cell culture medium to a 2× concentration for each reagent. For example, 1 mL of 2× RealTime-Glo™ reagent was prepared by adding 2 μL of MT Cell Viability Substrate, 1,000×, and 2 μL of NanoLuc® Enzyme, 1,000×, to 996 μL of cell culture medium to form the 2× RealTime-Glo™ reagent. Then, an equal volume of 2× RealTime-Glo™ reagent was added to the cancer cells. The cells were kept for ˜20 minutes in the cell culture incubator and then luminescence was measured by using a plate-reading luminometer.
MIA PaCa-2 is a human pancreatic ductal adenocarcinoma cell line derived from the carcinoma of a person.
as §4

[4] = test system: MCF-7 ER+ breast cancer cells; assay: XTT cell growth assay, MCF-7 ER+; format: cell-based, human; conditions: Homo sapiens, MCF7, 24 h, NS = not statistically significant, read-out: Effectiveness to suppress MCF7 cell growth (cell growth inhibition)
From the text: as §1, §2, §3
MCF-7 ER+ is a human breast cancer cell line isolated in 1970 from a person. Prior to MCF-7, it was not possible for cancer researchers to obtain a mammary cell line that was capable of living longer than a few months.
as §4

[5] = test system: HCT-116 colon cancer cells; assay: Cell Glo luminescence cell growth assay, HCT-116; format: cell-based, human; conditions: NS = not statistically significant; for Effectiveness to suppress HCT-116 cell growth (cell growth inhibition): 1 uM, 24 h; for inhibition at 1 µM: Homo sapiens, HCT-116, 24 h, read-out: Effectiveness to suppress HCT-116 cell growth (cell growth inhibition)
From the text: as §5, §6
HCT-116 is a human colorectal cancer cell lines that has a mutation in RAS proto-oncogene.
as §4

[6] = test system: MKN-45 gastric cancer cells; assay: XTT cell growth assay, MKN-45; format: cell-based, human; conditions: Homo sapiens, MKN-45, 24 h, NS = not statistically significant, read-out: Effectiveness to suppress MKN-45 cell growth (cell growth inhibition)
From the text: as §1, §2, §3
MKN-45 is a human gastric adenocarcinoma, established from the poorly differentiated adenocarcinoma of the stomach (medullary type) of a person.
as §4

[7] = Deoxyribose degradation assay (hydroxyl radical scavenging); format: biochemical; conditions: NS = not statistically significant
Procedure: The hydroxyl radical (OH.) is an extremely reactive in biological systems and has been implicated as highly damaging species in free radical pathology, capable of damaging biomolecules of the living cells. These radical combines with nucleotides in DNA and cause strand breakage leading to carcinogenesis, mutagenesis and cytotoxicity. Hydroxyl radical (OH.) scavenging capacity of an extract is directly related to its antioxidant activity.
The effect of extracts on hydroxyl radicals was assayed by using the deoxyribose method. 2-Deoxyribose is degraded on exposure to hydroxyl radicals generated by Fenton's reaction. The ability to neutralize the OH. is estimated as the rate of inhibition of the oxidation of 2-deoxyribose by the OH. (FIG. 5).
The measurement of the hydroxyl radical scavenging activity was evaluated for each of the GS compound by evaluating the pink chromogen absorption at 532 nm by spectrophotometry as described previously (Perjesi, Pal et al., Open Med Chem J., 2011, 5: 61-67

Row | Deoxyribose Degradation Assay IC50 [7] | Compound | inhibition at 50 µM [1] | inhibition at 50 µM [2] | inhibition at 50 µM [3] | inhibition at 50 µM [4] | Effectiveness to suppress MDA-MB-231 cell growth (cell growth inhibition) [2] | Effectiveness to suppress HCT-116 cell growth (cell growth inhibition) [5] | inhibition at 1 µM [5] | inhibition at 50 µM [6]
1 | – | C/C=C1/[C@H](OC2OC(CO)C(O)C(O)C2O)OC=C(C(=O)O)[C@H]1CC(=O)O (stereo in doubt) [GS2, (2S,4S,E)-4-(carboxymethyl)-3-Ethylidene-2-{[(2R,3S,4R,5R,6S)-3,4,5-trihydroxy-6-(hydroxymethyl)tetrahydro-2H-pyran-2-yl]oxy}-3,4-dihydro-2H-pyran-5-carboxylic acid] | 24.4% | 41.8% | – | – | – | – | – | –
2 | – | C/C=C1/[C@H](OC2OC(CO)C(O)C(O)C2O)OC=C(C(=O)O)[C@H]1CC(=O)OCC12CC3CC(CC(C3)C1)C2 (stereo in doubt) [GS3, (2S,4S,E)-4-(2-(adamantan-1-ylmethoxy)-2-oxoethyl)-3-ethylidene-2-{[(2R,3S,4R,5R,6S)-3,4,5-trihydroxy-6-(hydroxymethyl)tetrahydro-2H-pyran-2-yl]oxy}-3,4-dihydro-2H-pyran-5-carboxylic acid] | – | 64.7% | – | – | – | – | – | –
3 | – | C/C=C1/[C@H](OC2OC(CO)C(O)C(O)C2O)OC=C(C(=O)O)[C@H]1CC(=O)OCCC1CCCCC1 (stereo in doubt) [GS5, (2S,4S,E)-4-(2-(2-cyclohexylethoxy)-2-oxoethyl)-3-ethylidene-2-{[(2R,3S,4R,5R,6S)-3,4,5-trihydroxy-6-(hydroxymethyl)tetrahydro-2H-pyran-2-yl]oxy}-3,4-dihydro-2H-pyran-5-carboxylic acid] | – | 33.6% | – | – | – | – | – | –
4 | – | C/C=C1/[C@H](OC2OC(CO)C(O)C(O)C2O)OC=C(C(=O)O)[C@H]1CC(=O)OCCc1ccc(O)cc1 (stereo in doubt) [GS7, (2S,4S,E)-3-ethylidene-4-(2-(4-hydroxyphenethoxy)-2-oxoethyl)-2{[(2R,3 S,4R,5R,6S)-3,4,5-trihydroxy-6-(hydroxymethyl)tetrahydro-2H-pyran-2-yl]oxy}-3,4dihydro-2H-pyran-5-carboxylic acid] | – | 32.7% | – | – | – | – | – | –
5 | – | C/C=C1/[C@H](OC2OC(CO)C(O)C(O)C2O)OC=C(C(=O)O)[C@H]1CC(=O)OCc1cc2ccccc2[nH]1 (stereo in doubt) [GS8, (2S,4S,E)-4-(2-((1H-indol-2-yl)methoxy)-2-oxoethyl)-3-ethylidene-2-{[(2R,3S,4R,5R,6S)-3,4,5-trihydroxy-6-(hydroxymethyl)tetrahydro-2H-pyran-2-yl]oxy}-3,4-dihydro-2H-pyran-5-carboxylic acid] | 38.2% | 22.5% | – | – | – | – | – | –
6 | – | C/C=C1/[C@H](OC2OC(CO)C(O)C(O)C2O)OC=C(C(=O)O)[C@H]1CC(=O)OCCCSC (stereo in doubt) [GS9, (2S,4S,E)-3-ethylidene-4-(2-(3-(methylthio)propoxy)-2-oxoethyl)-2-{[(2R,3S,4R,5R,6S)-3,4,5-trihydroxy-6-(hydroxymethyl)tetrahydro-2H-pyran-2-yl]oxy}-3,4-dihydro-2H-pyran-5-carboxylic acid] | 20% | 71.2% | 55% | 11.6% | highest suppressive activity | suppressive activity | 41.7% | –
7 | – | C/C=C1/[C@H](OC2OC(CO)C(O)C(O)C2O)OC=C(C(=O)O)[C@H]1CC(=O)OCCOc1ccccc1 (stereo in doubt) [GS10, (2S,4S,E)-3-ethylidene-4-(2-oxo-2-(2-phenoxyethoxy)ethyl)-2-{[(2R,3S,4R,5R,6S)-3,4,5-trihydroxy-6-(hydroxymethyl)tetrahydro-2H-pyran-2-yl]oxy}-3,4-dihydro-2H-pyran-5-carboxylic acid] | 33.5% | 14% | 22% | 58.7% | – | suppressive activity | 25.7% | 31.9%
8 | – | C/C=C1/[C@H](OC2OC(CO)C(O)C(O)C2O)OC=C(C(=O)O)[C@H]1CC(=O)SCCc1ccccc1 (stereo in doubt) [GS11, (2S,4S,E)-3-ethylidene-4-(2-oxo-2-(phenethylthio)ethyl)-2-{[(2R,3S,4R,5R,6S)-3,4,5-trihydroxy-6-(hydroxymethyl)tetrahydro-2H-pyran-2-yl]oxy}-3,4-dihydro-2H-pyran-5-carboxylic acid] | 14.4% | 74.3% | 50% | 57.8% | highest suppressive activity | suppressive activity | 32.9% | –
9 | 17.6 μg extract/mL | C/C=C(/C=O)[C@@H](CC=O)CC(=O)OCC12CC3CC(CC(C3)C1)C2 [GS23, (3S,4E)-4-formyl-3-(2-oxoethyl)hex-4-enoic acid adamantan-1-ylmethyl ester] | 25.2% | 42.7% | 15% | 64.7% | – | – | – | –
